Results reported in patent US20240400591A1 (Jacobio Pharmaceuticals Co., Ltd., priority 2021, published 2024).
Where two headings read alike, the source gives them in different places.

How the values were obtained:
NUGC4 (P53 WT) = test: Cell viability assay (CellTiter-Glo, 6 days), NUGC4; type: cell-based; details: cell viability, 6 days, CellTiter-Glo, read-out: NUGC4 (P53 WT) IC50
Procedure: (§1) Cells were collected and counted. A desired number of cells was seeded into 96-well microplate and cultured in 37° C. cell incubator overnight. Compounds dissolved in cell culture medium were added into cell plate and cultured for 6 days. After balancing CellTiter-Glo reagent and cells at room temperature for 30 min, equal volume of CellTiter-Glo reagents was added to assay plate and shaken for 2 min for cell lysis. The cells were balanced at room temperature for 10 minutes and Luminescence signal was read using Envision. The percent of cell viability for compounds treated wells were normalized between High control and low control. Wells containing cell culture medium and same percentage DMSO sewved as Low control. Wells containing cells and same percentage DMSO sewved as High control. Cell viability (%)=(Luminescence readoutCompound treated−Luminescence readoutLow control)/(Luminescence readoutHigh control−Luminescence readoutLow control)*100%. Then the data were analyzed either by fitting a 4-parameter logistic model or by Excel to calculate IC50 values. And the IC50 was the concentration at 50% Cell viability on the curve.

[1] = tested on: NUGC-3_P53_Luc single clonal cell line (p53 Y220C); test: Reporter gene assay (p53 RE luciferase); type: cell-based; details: luciferase reporter, 6 hours, normalized to Ref-1a (10 μM) high control, read-out: p53(Y220C)_NUGC-3 EC50
Procedure: NUGC-3_P53_Luc single clonal cell line was established using pGL4.38[luc2P/p53 RE/Hygro] Vector (E365A, promega). NUGC-3_P53-Luc single clonal cells were cultured in 37° C. cell incubator before use. NUGC-3-P53-Luc cells were collected and washed twice with PBS to remove phenol red and then resuspended in medium to a proper concentration. Tested compound dilutions were transferred into 384 well assay plates (PerkinElmer). A desired number of cells was seeded into the assay plate and cultured for 6 hours at 37° C. cell incubator. Britelite plus Luciferase Assay Reagent were added into each well and the luminescence value was recorded on Envision. The percent of activity value of compounds treated wells was normalized between high control and low control. Wells containing cells and Ref-1a (10 μM) sewved as high control, and wells containing cells and same percentage of DMSO sewved as low control. Activity value (%)=(Luminescence readoutCompound treated−Luminescence readoutLow control)/(Luminescence readoutHigh control−Luminescence readoutLow control)*100%. Then the data were analyzed either by fitting a 4-parameter logistic model or by Excel to calculate EC50 values and the EC50 was the concentration at 50% Activity on the curve.

NUGC3 (P53 Y220C) = test: Cell viability assay (CellTiter-Glo, 6 days), NUGC3; type: cell-based; details: cell viability, 6 days, CellTiter-Glo, read-out: NUGC3 (P53 Y220C) IC50
Procedure: as §1

[2] = biological target: T1, His-p53 Y220C (94-294) protein (Homo sapiens, UniProt P04637, Y220C); test: In vitro DNA binding assay (HTRF); type: biochemical; details: % activation normalized to 2 μM Ref-1a high control
T1 construct: His-p53 Y220C (94-294) protein

Structure (SMILES)	IC50 (NUGC4 (P53 WT); Homo sapiens, NUGC-4, 144 h) [nM]	EC50 ([1]; Homo sapiens, NUGC-3) [nM]	IC50 (NUGC3 (P53 Y220C); Homo sapiens, NUGC-3, 144 h) [nM]	EC50 [2] [nM]	EC50 ([1]; Homo sapiens, NUGC-3, 6 h) [nM]	IC50 (NUGC4 (P53 WT)) [nM]	EC50 [1] [nM]	IC50 (NUGC3 (P53 Y220C)) [nM]
COc1nc(P(C)(C)=O)ncc1NCC#Cc1sc2c(N[C@@H]3CCN(C)C[C@@H]3F)cccc2c1CC(F)(F)F [Example 208, (5-((3-(7-(((3S,4R)-3-fluoro-1-methylpiperidin-4-yl)amino)-3-(2,2,2-trifluoroethyl)benzo[b]thiophen-2-yl)prop-2-yn-1-yl)amino)-4-methoxypyrimidin-2-yl)dimethylphosphine oxide]	13700	710	2130	43	–	–	–	–
CP(C)(=O)c1ccc(NCC#Cc2sc3c(N[C@@H]4CCN(C5CCOCC5)C[C@@H]4F)cccc3c2CC(F)(F)F)c(OC2CC2)c1 [Example 161, (3-cyclopropoxy-4-((3-(7-(((3S,4R)-3-fluoro-1-(tetrahydro-2H-pyran-4-yl)piperidin-4-yl)amino)-3-(2,2,2-trifluoroethyl)benzo[b]thiophen-2-yl)prop-2-yn-1-yl)amino)phenyl)dimethylphosphine oxide]	12900	120	1150	73	–	–	–	–
COc1cc(P(C)(C)=O)ccc1NCC#Cc1sc2c(N[C@@H]3CCN(C4CCOCC4)C[C@@H]3F)cccc2c1CC(F)(F)F [Example 147, (4-((3-(7-(((3S,4R)-3-fluoro-1-(tetrahydro-2H-pyran-4-yl)piperidin-4-yl)amino)-3-(2,2,2-trifluoroethyl)benzo[b]thiophen-2-yl)prop-2-yn-1-yl)amino)-3-methoxyphenyl)dimethylphosphine oxide]	6830	–	1470	91	110	–	–	–
CNC(=O)c1cc(NCC#Cc2sc3c(N[C@@H]4CCN(C5CCOCC5)C[C@@H]4F)cccc3c2CC(F)(F)F)c(OC)cc1P(C)(C)=O [Example 160, 2-dimethylphosphoryl-5-[3-[7-[[(3S,4R)-3-fluoro-1-tetrahydropyran-4-yl-4-piperidyl]amino]-3-(2,2,2-trifluoroethyl)benzothiophen-2-yl]prop-2-ynylamino]-4-methoxy-N-methyl-benzamide]	> 50000	190	1410	41	–	–	–	–
CN1CC[C@@H](Nc2cccc3c(CC(F)(F)F)c(C#CCNc4ccc(P(C)(C)=O)c5ccoc45)sc23)[C@@H](F)C1 [Example 198, (7-((3-(7-(((3S,4R)-3-fluoro-1-methylpiperidin-4-yl)amino)-3-(2,2,2-trifluoroethyl)benzo[b]thiophen-2-yl)prop-2-yn-1-yl)amino)benzofuran-4-yl)dimethylphosphine oxide]	5100	200	260	43	–	–	–	–
COc1cc(S(C)(=O)=O)ccc1NCC#Cc1cc2c(N[C@@H]3CCN(C)C[C@@H]3F)cccc2n1CC(F)(F)F [Ref-1a, N-((3S,4R)-3-fluoro-1-methylpiperidin-4-yl)-2-(3-((2-methoxy-4-(methylsulfonyl)phenyl)amino)prop-1-yn-1-yl)-1-(2,2,2-trifluoroethyl)-1H-indol-4-amine, reference compound]	11000	50	540	48	–	–	–	–
COc1cc(P(C)(C)=O)c(F)cc1NCC#Cc1sc2c(NC3CCN(C)CC3F)cccc2c1CC(F)(F)F (centres unmarked) [Example 52, (2-fluoro-4-((3-(7-(((Z)-3-fluoro-1-methylpiperidin-4-yl)amino)-3-(2,2,2-trifluoroethyl)benzo[b]thiophen-2-yl)prop-2-yn-1-yl)amino)-5-methoxyphenyl)dimethylphosphine oxide]	–	–	–	55	–	4580	230	750
COc1cc([S@](C)(=N)=O)ccc1NCC#Cc1sc2c(N[C@@H]3CCN(C)C[C@@H]3F)cccc2c1CC(F)(F)F [Example 227, (R)-(4-((3-(7-(((3S,4R)-3-fluoro-1-methylpiperidin-4-yl)amino)-3-(2,2,2-trifluoroethyl)benzo[b]thiophen-2-yl)prop-2-yn-1-yl)amino)-3-methoxyphenyl)(imino)(methyl)-16-sulfanone]	–	–	–	40	–	17600	40	280
CNC(=O)c1ccc(NCC#Cc2sc3c(NC4CCN(C)CC4F)cccc3c2CC(F)(F)F)c(OC)n1 (centres unmarked) [Example 62, 5-((3-(7-(((Z)-3-fluoro-1-methylpiperidin-4-yl)amino)-3-(2,2,2-trifluoroethyl)benzo[b]thiophen-2-yl)prop-2-yn-1-yl)amino)-6-methoxy-N-methylpicolinamide]	–	–	–	64	–	3700	340	1430
[2H]C([2H])([2H])Oc1cc(P(C)(C)=O)ccc1NCC#Cc1sc2c(N[C@@H]3CCN(C)C[C@@H]3F)cccc2c1CC(F)(F)F [Example 174, (4-((3-(7-(((3S,4R)-3-fluoro-1-methylpiperidin-4-yl)amino)-3-(2,2,2-trifluoroethyl)benzo[b]thiophen-2-yl)prop-2-yn-1-yl)amino)-3-(methoxy-d3)phenyl)dimethylphosphine oxide]	5930	60	350	15	–	–	–	–
CN1CC[C@@H](Nc2cccc3c(CC(F)(F)F)c(C#CCNc4ccc(P(C)(C)=O)c5c4OCO5)sc23)[C@@H](F)C1 [Example 163, (7-((3-(7-(((3S,4R)-3-fluoro-1-methylpiperidin-4-yl)amino)-3-(2,2,2-trifluoroethyl)benzo[b]thiophen-2-yl)prop-2-yn-1-yl)amino)benzo[d][1,3]dioxol-4-yl)dimethylphosphine oxide]	3820	180	1210	50	–	–	–	–
COc1cc(P(C)(C)=O)ccc1NCC#Cc1sc2c(N[C@H]3CCN(C)C[C@@H]3C)cccc2c1CC(F)(F)F [Example 127, (4-((3-(7-(((3S,4S)-1,3-dimethylpiperidin-4-yl)amino)-3-(2,2,2-trifluoroethyl)benzo[b]thiophen-2-yl)prop-2-yn-1-yl)amino)-3-methoxyphenyl)dimethylphosphine oxide]	2260	–	330	38	100	–	–	–
COc1cc(P2(=O)CCN(C(=O)C3CC3)CC2)ccc1NCC#Cc1sc2c(N[C@@H]3CCN(C)C[C@@H]3F)cccc2c1CC(F)(F)F [Example 149, cyclopropyl(4-(4-((3-(7-(((3S,4R)-3-fluoro-1-methylpiperidin-4-yl)amino)-3-(2,2,2-trifluoroethyl)benzo[b]thiophen-2-yl)prop-2-yn-1-yl)amino)-3-methoxyphenyl)-4-oxido-1,4-azaphosphinan-1-yl)methanone]	3700	90	370	46	–	–	–	–
COc1cc(C(=O)NC2CCN(C)CC2(F)F)ccc1NCC#Cc1sc2c(N[C@@H]3CCN(C)C[C@@H]3F)cccc2c1CC(F)(F)F (relative stereo) [Example 94, N-(3,3-difluoro-1-methylpiperidin-4-yl)-4-((3-(7-(((Z)-3-fluoro-1-methylpiperidin-4-yl)amino)-3-(2,2,2-trifluoroethyl)benzo[b]thiophen-2-yl)prop-2-yn-1-yl)amino)-3-methoxybenzamide]	2750	190	1840	85	–	–	–	–
